Numbered stars: 1 amine (or outer) side, 2 acyl side, 3 side chain; on linkers, the order of the positions; unused ones are H or OH. Square brackets hold non-standard residues; d marks the D form. Peptide text beside a SMILES is read from it. * marks the point of attachment. ξ: configuration not given here. C18 diacid = O=C(O)CCCCCCCCCCCCCCCCC(=O)*; Docosanoyl = CCCCCCCCCCCCCCCCCCCCCC(=O)*; C16 diacid = O=C(O)CCCCCCCCCCCCCCC(=O)*; Nonadecanoyl = CCCCCCCCCCCCCCCCCCC(=O)*; Arachidoyl = CCCCCCCCCCCCCCCCCCCC(=O)*; C15 diacid = O=C(O)CCCCCCCCCCCCCC(=O)*; Heptadecanoyl = CCCCCCCCCCCCCCCCC(=O)*; γGlu = O=C(O)[C@H](CCC(=O)[*:2])N[*:1]; C14 diacid = O=C(O)CCCCCCCCCCCCC(=O)*; Pentadecanoyl = CCCCCCCCCCCCCCC(=O)*; Pentanoyl(5-Ph) = O=C(CCCCc1ccccc1)*; C12 diacid = O=C(O)CCCCCCCCCCC(=O)*; HOOC(CH2)6CO = O=C(O)CCCCCCC(=O)*; Tridecanoyl = CCCCCCCCCCCCC(=O)*; Lauroyl = CCCCCCCCCCCC(=O)*; Decanoyl = CCCCCCCCCC(=O)*; ξR = N=C(N)NCCCC(N)C(=O)O; Pentanoyl = CCCCC(=O)*; AEEA = NCCOCCOCC(=O)O; Propionyl = CCC(=O)*
Assays:
[1] = biological target: T1, Tyrosine-protein phosphatase non-receptor type 1 (Homo sapiens) (UniProt P18031); experiment: Inhibition of N-terminal His tagged recombinant human PTP1B expressed in Escherichia coli using pNPP as substrate assessed as substrate hydrolysis at 40 umol/L relative to control; details: dose 40.0 µmol/L
T1 sequence (whole entry): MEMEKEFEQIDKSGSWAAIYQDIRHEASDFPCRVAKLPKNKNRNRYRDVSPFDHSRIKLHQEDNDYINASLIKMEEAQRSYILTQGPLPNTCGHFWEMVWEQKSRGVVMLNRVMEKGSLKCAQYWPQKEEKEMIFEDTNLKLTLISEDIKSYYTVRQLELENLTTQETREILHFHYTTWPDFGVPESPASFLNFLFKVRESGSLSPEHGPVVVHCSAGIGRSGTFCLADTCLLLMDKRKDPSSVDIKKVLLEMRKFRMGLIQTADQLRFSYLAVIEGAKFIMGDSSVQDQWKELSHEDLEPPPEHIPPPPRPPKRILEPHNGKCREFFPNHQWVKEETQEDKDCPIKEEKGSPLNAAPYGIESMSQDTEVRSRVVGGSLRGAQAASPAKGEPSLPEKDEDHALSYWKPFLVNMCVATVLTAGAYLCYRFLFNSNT

[2] = biological target: T2, Tyrosine-protein phosphatase non-receptor type 1 (Homo sapiens, UniProt P18031); experiment: Inhibition of N-terminal His tagged recombinant human PTP1B expressed in Escherichia coli using pNPP as substrate assessed as substrate hydrolysis
T2 sequence (P18031 whole entry): T1 sequence (whole entry)

| Compound | inhibition [1] [%] | IC50 [2] [nM] |
| --- | --- | --- |
| CCCCCCCCCCCCCCCC(=O)N[C@@H](CCC(=O)N[C@H](C(=O)N[C@@H](C)C(=O)N[C@H](CCC(N)=O)C(=O)N[C@@H](CCC(=O)O)C(=O)N[C@@H](CC(C)C)C(=O)N[C@@H](CCCNC(=N)N)C(=O)N[C@@H](CCCNC(=N)N)C(=O)N[C@H](C(=O)NCC(=O)N[C@@H](CC(=O)O)C(=O)N[C@@H](CCC(=O)O)C(=O)N[C@@H](Cc1ccccc1)C(=O)O)[C@@H](C)CC)[C@@H](C)CC)C(=O)O | > 50 | 4350 |
| CCCCCCCCCCCCCCCCCCCC(=O)N[C@H](C(=O)N[C@@H](C)C(=O)N[C@@H](CCC(N)=O)C(=O)N[C@@H](CCC(=O)O)C(=O)N[C@@H](CC(C)C)C(=O)N[C@@H](CCCNC(=N)N)C(=O)NC(CCCNC(=N)N)C(=O)N[C@H](C(=O)NCC(=O)N[C@@H](CC(=O)O)C(=O)N[C@@H](CCC(=O)O)C(=O)N[C@@H](Cc1ccccc1)C(=O)O)[C@@H](C)CC)[C@@H](C)CC (stereo not given in full) (Arachidoyl-IAQELR[ξR]IGDEF-OH) | > 50 | 3890 |
| CCCCCCCCCC(=O)N[C@H](C(=O)N[C@@H](C)C(=O)N[C@@H](CCC(N)=O)C(=O)N[C@@H](CCC(=O)O)C(=O)N[C@@H](CC(C)C)C(=O)N[C@@H](CCCNC(=N)N)C(=O)N[C@@H](CCCNC(=N)N)C(=O)N[C@H](C(=O)NCC(=O)N[C@@H](CC(=O)O)C(=O)N[C@@H](CCC(=O)O)C(=O)N[C@@H](Cc1ccccc1)C(=O)O)[C@@H](C)CC)[C@@H](C)CC (Decanoyl-IAQELRRIGDEF-OH) | > 50 | 2140 |
| CCCCCCCCCCCCCCCCCCCCCC(=O)N[C@H](C(=O)N[C@@H](C)C(=O)N[C@@H](CCC(N)=O)C(=O)N[C@@H](CCC(=O)O)C(=O)N[C@@H](CC(C)C)C(=O)N[C@@H](CCCNC(=N)N)C(=O)NC(CCCNC(=N)N)C(=O)N[C@H](C(=O)NCC(=O)N[C@@H](CC(=O)O)C(=O)N[C@@H](CCC(=O)O)C(=O)N[C@@H](Cc1ccccc1)C(=O)O)[C@@H](C)CC)[C@@H](C)CC (stereo not given in full) (Docosanoyl-IAQELR[ξR]IGDEF-OH) | > 50 | 6780 |
| CCCCCCCCCCCCCCCCC(=O)N[C@H](C(=O)N[C@@H](C)C(=O)N[C@@H](CCC(N)=O)C(=O)N[C@@H](CCC(=O)O)C(=O)N[C@@H](CC(C)C)C(=O)N[C@@H](CCCNC(=N)N)C(=O)N[C@@H](CCCNC(=N)N)C(=O)N[C@H](C(=O)NCC(=O)N[C@@H](CC(=O)O)C(=O)N[C@@H](CCC(=O)O)C(=O)N[C@@H](Cc1ccccc1)C(=O)O)[C@@H](C)CC)[C@@H](C)CC (Heptadecanoyl-IAQELRRIGDEF-OH) | > 50 | 2570 |
| CCCCCCCCCCCC(=O)N[C@H](C(=O)N[C@@H](C)C(=O)N[C@@H](CCC(N)=O)C(=O)N[C@@H](CCC(=O)O)C(=O)N[C@@H](CC(C)C)C(=O)N[C@@H](CCCNC(=N)N)C(=O)N[C@@H](CCCNC(=N)N)C(=O)N[C@H](C(=O)NCC(=O)N[C@@H](CC(=O)O)C(=O)N[C@@H](CCC(=O)O)C(=O)N[C@@H](Cc1ccccc1)C(=O)O)[C@@H](C)CC)[C@@H](C)CC (Lauroyl-IAQELRRIGDEF-OH) | > 50 | 2780 |
| CCCCCCCCCCCCCCCCCCC(=O)N[C@H](C(=O)N[C@@H](C)C(=O)N[C@@H](CCC(N)=O)C(=O)N[C@@H](CCC(=O)O)C(=O)N[C@@H](CC(C)C)C(=O)N[C@@H](CCCNC(=N)N)C(=O)NC(CCCNC(=N)N)C(=O)N[C@H](C(=O)NCC(=O)N[C@@H](CC(=O)O)C(=O)N[C@@H](CCC(=O)O)C(=O)N[C@@H](Cc1ccccc1)C(=O)O)[C@@H](C)CC)[C@@H](C)CC (stereo not given in full) (Nonadecanoyl-IAQELR[ξR]IGDEF-OH) | > 50 | 437 |
| CCCCCCCCCCCCCCC(=O)N[C@H](C(=O)N[C@@H](C)C(=O)N[C@@H](CCC(N)=O)C(=O)N[C@@H](CCC(=O)O)C(=O)N[C@@H](CC(C)C)C(=O)N[C@@H](CCCNC(=N)N)C(=O)N[C@@H](CCCNC(=N)N)C(=O)N[C@H](C(=O)NCC(=O)N[C@@H](CC(=O)O)C(=O)N[C@@H](CCC(=O)O)C(=O)N[C@@H](Cc1ccccc1)C(=O)O)[C@@H](C)CC)[C@@H](C)CC (Pentadecanoyl-IAQELRRIGDEF-OH) | > 50 | 1660 |
| CCCCC(=O)N[C@H](C(=O)N[C@@H](C)C(=O)N[C@@H](CCC(N)=O)C(=O)N[C@@H](CCC(=O)O)C(=O)N[C@@H](CC(C)C)C(=O)N[C@@H](CCCNC(=N)N)C(=O)N[C@@H](CCCNC(=N)N)C(=O)N[C@H](C(=O)NCC(=O)N[C@@H](CC(=O)O)C(=O)N[C@@H](CCC(=O)O)C(=O)N[C@@H](Cc1ccccc1)C(=O)O)[C@@H](C)CC)[C@@H](C)CC (Pentanoyl-IAQELRRIGDEF-OH) | < 50 | – |
| CCC(=O)N[C@H](C(=O)N[C@@H](C)C(=O)N[C@@H](CCC(N)=O)C(=O)N[C@@H](CCC(=O)O)C(=O)N[C@@H](CC(C)C)C(=O)N[C@@H](CCCNC(=N)N)C(=O)N[C@@H](CCCNC(=N)N)C(=O)N[C@H](C(=O)NCC(=O)N[C@@H](CC(=O)O)C(=O)N[C@@H](CCC(=O)O)C(=O)N[C@@H](Cc1ccccc1)C(=O)O)[C@@H](C)CC)[C@@H](C)CC (Propionyl-IAQELRRIGDEF-OH) | < 50 | – |
| CCCCCCCCCCCCC(=O)N[C@H](C(=O)N[C@@H](C)C(=O)N[C@@H](CCC(N)=O)C(=O)N[C@@H](CCC(=O)O)C(=O)N[C@@H](CC(C)C)C(=O)N[C@@H](CCCNC(=N)N)C(=O)N[C@@H](CCCNC(=N)N)C(=O)N[C@H](C(=O)NCC(=O)N[C@@H](CC(=O)O)C(=O)N[C@@H](CCC(=O)O)C(=O)N[C@@H](Cc1ccccc1)C(=O)O)[C@@H](C)CC)[C@@H](C)CC (Tridecanoyl-IAQELRRIGDEF-OH) | > 50 | 835 |
| CC[C@H](C)[C@H](NC(=O)CCCCCCCCCCC(=O)O)C(=O)N[C@@H](C)C(=O)N[C@@H](CCC(N)=O)C(=O)N[C@@H](CCC(=O)O)C(=O)N[C@@H](CC(C)C)C(=O)N[C@@H](CCCNC(=N)N)C(=O)N[C@@H](CCCNC(=N)N)C(=O)N[C@H](C(=O)NCC(=O)N[C@@H](CC(=O)O)C(=O)N[C@@H](CCC(=O)O)C(=O)N[C@@H](Cc1ccccc1)C(=O)O)[C@@H](C)CC ({C12 diacid}-IAQELRRIGDEF-OH) | < 50 | – |
| CC[C@H](C)[C@H](NC(=O)CCCCCCCCCCCCC(=O)O)C(=O)N[C@@H](C)C(=O)N[C@@H](CCC(N)=O)C(=O)N[C@@H](CCC(=O)O)C(=O)N[C@@H](CC(C)C)C(=O)N[C@@H](CCCNC(=N)N)C(=O)NC(CCCNC(=N)N)C(=O)N[C@H](C(=O)NCC(=O)N[C@@H](CC(=O)O)C(=O)N[C@@H](CCC(=O)O)C(=O)N[C@@H](Cc1ccccc1)C(=O)O)[C@@H](C)CC (stereo not given in full) ({C14 diacid}-IAQELR[ξR]IGDEF-OH) | < 50 | – |
| CC[C@H](C)[C@H](NC(=O)CCCCCCCCCCCCCC(=O)O)C(=O)N[C@@H](C)C(=O)N[C@@H](CCC(N)=O)C(=O)N[C@@H](CCC(=O)O)C(=O)N[C@@H](CC(C)C)C(=O)N[C@@H](CCCNC(=N)N)C(=O)N[C@@H](CCCNC(=N)N)C(=O)N[C@H](C(=O)NCC(=O)N[C@@H](CC(=O)O)C(=O)N[C@@H](CCC(=O)O)C(=O)N[C@@H](Cc1ccccc1)C(=O)O)[C@@H](C)CC ({C15 diacid}-IAQELRRIGDEF-OH) | > 50 | 1540 |
| CC[C@H](C)[C@H](NC(=O)CCCCCCCCCCCCCCC(=O)O)C(=O)N[C@@H](C)C(=O)N[C@@H](CCC(N)=O)C(=O)N[C@@H](CCC(=O)O)C(=O)N[C@@H](CC(C)C)C(=O)N[C@@H](CCCNC(=N)N)C(=O)N[C@@H](CCCNC(=N)N)C(=O)N[C@H](C(=O)NCC(=O)N[C@@H](CC(=O)O)C(=O)N[C@@H](CCC(=O)O)C(=O)N[C@@H](Cc1ccccc1)C(=O)O)[C@@H](C)CC ({C16 diacid}-IAQELRRIGDEF-OH) | > 50 | 2880 |
| CC[C@H](C)[C@H](NC(=O)COCCOCCNC(=O)COCCOCCNC(=O)CC[C@H](NC(=O)CCCCCCCCCCCCCCCCC(=O)O)C(=O)O)C(=O)N[C@@H](C)C(=O)N[C@@H](CCC(N)=O)C(=O)N[C@@H](CCC(=O)O)C(=O)N[C@@H](CC(C)C)C(=O)N[C@@H](CCCNC(=N)N)C(=O)N[C@@H](CCCNC(=N)N)C(=O)N[C@H](C(=O)NCC(=O)N[C@@H](CC(=O)O)C(=O)N[C@@H](CCC(=O)O)C(=O)N[C@@H](Cc1ccccc1)C(=O)O)[C@@H](C)CC ({C18 diacid-γGlu-AEEA-AEEA}-IAQELRRIGDEF-OH) | < 50 | – |
| CC[C@H](C)[C@H](NC(=O)CCCCCCC(=O)O)C(=O)N[C@@H](C)C(=O)N[C@@H](CCC(N)=O)C(=O)N[C@@H](CCC(=O)O)C(=O)N[C@@H](CC(C)C)C(=O)N[C@@H](CCCNC(=N)N)C(=O)N[C@@H](CCCNC(=N)N)C(=O)N[C@H](C(=O)NCC(=O)N[C@@H](CC(=O)O)C(=O)N[C@@H](CCC(=O)O)C(=O)N[C@@H](Cc1ccccc1)C(=O)O)[C@@H](C)CC ({HOOC(CH2)6CO}-IAQELRRIGDEF-OH) | < 50 | – |
| CC[C@H](C)[C@H](NC(=O)CCCCc1ccccc1)C(=O)N[C@@H](C)C(=O)N[C@@H](CCC(N)=O)C(=O)N[C@@H](CCC(=O)O)C(=O)N[C@@H](CC(C)C)C(=O)N[C@@H](CCCNC(=N)N)C(=O)N[C@@H](CCCNC(=N)N)C(=O)N[C@H](C(=O)NCC(=O)N[C@@H](CC(=O)O)C(=O)N[C@@H](CCC(=O)O)C(=O)N[C@@H](Cc1ccccc1)C(=O)O)[C@@H](C)CC ({Pentanoyl(5-Ph)}-IAQELRRIGDEF-OH) | < 50 | – |
| Ac-IAQELRRIGDEF-OH | < 50 | – |
